The source of these data is US8835476B2, “Synthesis of novel antimicrobials” (priority 2005, dated 2014).

A word on the inhibition: it is how much of the control response was suppressed.

One experiment concerns the target T1, recombinant E. coli LpxA (Escherichia coli, UniProt P0A722).
T1 construct: 6xHis (C); made in house; host or cells: E. coli BL21 (pET23b)
In words: LpxA assay: acyl-UDP-GlcNAc formation from UDP-[3H]GlcNAc, TLC. In kind it is biochemical. The following applies: 5 mM compound; FIG. 8. The source says:
The lpxA gene was amplified from an E. coli genomic library and inserted into a pET23b vector using standard recombinant DNA methodology. The 5′ oligonucleotide for amplification of the LpxA open reading frame was 5′-[…]-3′ (SEQ ID NO. 1) and contains a BamHI restriction enzyme site upstream of the LpxA ATG start codon and the 3′ oligonucleotide was 5′-[…]-3′ (SEQ ID NO. 2) and contains a XhoI restriction enzyme site downstream of the final codon of the LpxA open reading frame. Primers were custom synthesized. The primers were designed such that digestion of the amplification product would result in addition of a C-terminal 6×-His tag in frame with the LpxA open reading frame. Specifically, E. coli genomic DNA was isolated and an amplification reaction was carried out as follows: 33 μl water, 5 μl 10× reaction buffer, 1.5 μl of 50 mM magnesium sulfate, 3 μl of 10 mM dNTPs, 3 μl of a 50 μM solution of the 5′ LpxA primer, 3 μl of a 50 μM solution of the 3′ LpxA primer, 0.5 μl of E. coli genomic DNA solution, and 1 μl of polymerase. The reaction conditions were as follows: 94° C. for 2 minutes; followed by 30 cycles of 94° C. for 30 seconds, 50° C. for 30 seconds, 68° C. for 1.5 minutes, followed by an extension at 68° C. for 7 minutes. The resulting LpxA product was separated from other DNA on a 0.8% agarose gel and isolated from the gel. The LpxA open reading frame was cloned into a topoisomerase I-activated vector and transformed into E. coli. […] The newly synthesized plasmid containing the BamHI- and XhoI-flanked LpxA open reading frame and plasmid pET23a were digested with BamHI and XhoI at 37° C. for 2 hours, DNA was separated by agarose gel electrophoresis, isolated from the gel, and ligated. Ligation reactions were transformed into chemically competent E. coli and plasmid DNA was isolated. Restriction mapping was performed to determine which plasmids contained the LpxA open reading frame. To remove the T7 epitope coding sequence from the 5′end of the LpxA open reading frame, the pET23a plasmid containing the LpxA open reading frame was digested with the restriction enzymes BamHI and XhoI and a pET23b plasmid was digested with BglII and XhoI, DNA was separated by agarose gel electrophoresis, isolated from the gel, and ligated. Ligation reactions were transformed into chemically competent E. coli and plasmid DNA was isolated. Restriction mapping was performed to assess plasmids containing the LpxA open reading frame.
A 5 ml culture of E. Coli BL21 cells expressing the LpxA-6×His plasmid was grown overnight at 37° C. in LB medium containing 50 μg/ml ampicillin and 34 μg/ml chloramphenicol, then subcultured into 500 ml of the same medium and grown at 37° C. until A600=0.6. LpxA expression was induced by addition of 0.5 mM IPTG for three hours. The cells were centrifuged at 7 000×g for 10 minutes at 4° C. and lysed using a mild, nonionic detergent. The soluble fraction containing LpxA was added to 1 ml of nickel affinity resin in a 15 ml Falcon tube; the resin was washed extensively with extraction/wash buffer (50 mM Na-phosphate (pH 7.0) and 300 mM NaCl) prior to use. This mixture was incubated on a rotating platform at low speed for 20 minutes at room temperature. The resin was centrifuged at 1000 rpm in a bench top centrifuge for 2 min, washed twice (10 min each) with 10 ml of extraction/wash buffer, resuspended in 10 ml of extraction/wash buffer, and transferred to a 10 ml polypropylene disposable protein purification column. The column was eluted with 5 ml of 50 mM Na-phosphate (pH 7.0) containing 300 mM NaCl and 150 mM imidazole, collected in 1 ml fractions. The eluate was analysed by SDS-PAGE and was visualised using a protein stain (FIG. 7 inset).
Recombinant Vibrio harveyi acyl carrier protein was prepared from a GST fusion protein as described previously (Flaman et al., 2001). […]

Experiment [1] relates to LPS synthesis in E. coli strain D22. Description: In vivo LPS synthesis: [3H]galactose incorporation into acid-precipitable material. It counts as cell-based. As to the method: LpxA catalyzes the first step in the synthesis of lipid A (the hydrophobic anchor of LPS), which is essential for the growth and pathogenesis of many gram-negative bacteria. The inhibition of LpxA activity would therefore result in decreased synthesis of LPS. To measure the synthesis of LPS in vivo, the incorporation of radiolabelled galactose into acid-precipitable material was determined. The E. coli strain used for these studies was D22 (obtained from the E. coli Genetic Stock Center), which contains a mutation in the LpxC gene (lpxC101; Normark et al., 1969, J Bacteriol 97, 1334). Strains harbouring this mutation have an increased susceptibility to antibiotics, in addition to producing approximately 30% less LPS (Grundstrom et al., 1980, J Bacteriol 144, 884.). Bacteria were grown in Luria broth to early-log phase, at which point, 500 μl was transferred to a culture tube containing 1 μl of [^3H]galactose (final concentration, 0.2 mM, 20 μCi/μmol) and mixed. Cultures were incubated at 30° C. for 75 minutes with shaking at 220 rpm. Incorporation was terminated by adding 400 μl of labelled culture to 44.4 μl of 100% trichloroacetic acid (TCA, 10% final concentration) in a 1.5 ml microcentrifuge tube. Tubes were vortexed, incubated on ice for 30 minutes, then centrifuged at 14 000 rpm for 5 minutes at room temperature. The pellet was rinsed twice with 1 ml of ice-cold 10% TCA, resuspended in 50 μl of formic acid, and transferred to a scintillation vial for counting.
Compounds to be tested were dissolved in DMSO and added to the bacterial culture prior to labelling with galactose, and LPS synthesis was determined as described previously. The final concentration of DMSO (1%, v/v) had minimal effect on LPS synthesis.

T1 sequence (P0A722 whole entry): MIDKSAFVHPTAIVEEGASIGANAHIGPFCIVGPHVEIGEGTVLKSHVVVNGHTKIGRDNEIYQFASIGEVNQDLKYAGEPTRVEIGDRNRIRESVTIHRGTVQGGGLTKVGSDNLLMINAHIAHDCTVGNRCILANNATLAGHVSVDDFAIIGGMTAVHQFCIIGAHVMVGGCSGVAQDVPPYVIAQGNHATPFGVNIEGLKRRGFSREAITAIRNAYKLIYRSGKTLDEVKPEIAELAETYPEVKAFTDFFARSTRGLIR

In the case of `COc1ccc(-c2cc(-c3nnn[nH]3)c(-c3ccc(OC)cc3)s2)cc1` [DNM-131D, 5-(2,5-Bis(4-methoxyphenyl)thiophen-3-yl)-1H-tetrazole], at recombinant E. coli LpxA, the inhibition at 5000 µM is more than 80%. The “decrease of LPS synthesis” value in experiment [1] (0.1 mM, FIG. 10B) was approximately 50%.
`CCOC(=O)c1cccc(-c2cc(-c3nnn[nH]3)c(-c3cccc(C(=O)OCC)c3)s2)c1` [DNM-131I, 5-(2,5-Bis(3-(ethoxylcarbonyl)phenyl)thiophen-3-yl)-1H-tetrazole]: the inhibition at 5000 µM on recombinant E. coli LpxA is more than 80%. Besides, the “decrease of LPS synthesis” value in experiment [1] (1 mM, FIG. 10A) is given as approximately 80%.
